Laboratory results: ChEMBL document CHEMBL5360591, “Licochalcone A Derivatives as Selective Dipeptidyl Peptidase 4 Inhibitors with Anti-Inflammatory Effects” (J Nat Prod, 2023)
Calls of active or inactive are those of the source. The rule behind the calls is not given here.

Biological target: T1, Prolyl endopeptidase (Homo sapiens, UniProt P48147)
T1 sequence (P48147 whole entry): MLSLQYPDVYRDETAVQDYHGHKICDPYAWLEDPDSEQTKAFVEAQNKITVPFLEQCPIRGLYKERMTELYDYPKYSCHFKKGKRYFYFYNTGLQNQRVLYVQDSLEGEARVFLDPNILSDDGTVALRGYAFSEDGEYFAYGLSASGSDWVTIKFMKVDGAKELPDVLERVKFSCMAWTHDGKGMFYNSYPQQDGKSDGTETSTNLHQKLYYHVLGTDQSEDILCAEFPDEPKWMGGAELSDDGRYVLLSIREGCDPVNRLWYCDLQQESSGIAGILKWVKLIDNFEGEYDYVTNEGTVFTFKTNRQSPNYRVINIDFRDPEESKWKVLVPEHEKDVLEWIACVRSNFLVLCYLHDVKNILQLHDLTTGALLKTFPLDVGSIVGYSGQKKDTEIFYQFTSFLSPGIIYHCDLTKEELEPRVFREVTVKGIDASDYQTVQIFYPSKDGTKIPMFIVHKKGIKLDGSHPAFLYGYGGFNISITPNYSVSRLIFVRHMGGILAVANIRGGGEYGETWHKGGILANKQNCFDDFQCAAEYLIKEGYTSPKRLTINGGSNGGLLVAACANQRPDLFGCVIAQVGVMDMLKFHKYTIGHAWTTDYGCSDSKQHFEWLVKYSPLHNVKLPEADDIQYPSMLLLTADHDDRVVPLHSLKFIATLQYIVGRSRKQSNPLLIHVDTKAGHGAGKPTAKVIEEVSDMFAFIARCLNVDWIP
Assay: Inhibition of recombinant human PREP using Z-GP-AMC as substrate preincubated for 5 mins followed by substrate addition and measured after 20 mins by microplate reader analysis
Conditions: not given

| Compound | IC50 [µM] |
| --- | --- |
| COc1cc(O)c(Cl)cc1/C=C/C(=O)c1ccc(O)c([N+](=O)[O-])c1 | 62.1 |

Organism: Homo sapiens
Assay: Selectivity index, ratio of IC50 for inhibition of recombinant human PREP to IC50 for inhibition of recombinant human DPP4
Conditions: not given

| Compound | Ratio IC50 |
| --- | --- |
| COc1cc(O)c(Cl)cc1/C=C/C(=O)c1ccc(O)c([N+](=O)[O-])c1 | > 12.7 |

Biological target: T2, Dipeptidyl peptidase 4 (Homo sapiens, UniProt P27487)
Assay: Inhibition of DPP4 in human Caco-2 cells using GP-BAN as substrate assessed reduction of reduction in substrate hydrolysis at 20 uM incubated for 30 mins by Hoechst 33342 staining based assay
Assay type: cell-based
Conditions: not given
Target sequence in this assay (P27487 whole entry, looked up): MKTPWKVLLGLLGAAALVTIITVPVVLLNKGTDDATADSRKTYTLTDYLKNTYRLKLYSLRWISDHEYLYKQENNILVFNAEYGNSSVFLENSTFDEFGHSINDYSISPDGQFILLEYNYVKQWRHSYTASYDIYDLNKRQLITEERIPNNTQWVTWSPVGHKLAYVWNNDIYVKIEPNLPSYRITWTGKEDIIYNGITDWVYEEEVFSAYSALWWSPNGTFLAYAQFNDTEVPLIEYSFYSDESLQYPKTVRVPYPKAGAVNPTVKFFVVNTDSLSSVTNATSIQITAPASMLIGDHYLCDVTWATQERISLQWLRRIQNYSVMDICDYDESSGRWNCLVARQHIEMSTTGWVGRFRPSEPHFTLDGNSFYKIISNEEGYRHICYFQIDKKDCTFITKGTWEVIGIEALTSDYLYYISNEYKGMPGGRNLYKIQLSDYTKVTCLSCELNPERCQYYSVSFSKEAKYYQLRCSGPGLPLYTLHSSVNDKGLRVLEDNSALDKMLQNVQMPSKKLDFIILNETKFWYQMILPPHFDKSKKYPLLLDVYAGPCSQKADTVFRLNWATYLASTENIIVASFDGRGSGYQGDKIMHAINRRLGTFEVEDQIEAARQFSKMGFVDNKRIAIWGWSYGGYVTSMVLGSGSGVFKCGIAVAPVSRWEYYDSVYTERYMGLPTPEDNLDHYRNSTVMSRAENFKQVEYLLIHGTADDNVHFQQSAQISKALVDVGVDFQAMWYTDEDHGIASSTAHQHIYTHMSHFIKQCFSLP

| Compound | inhibition |
| --- | --- |
| COc1cc(O)c(Cl)cc1/C=C/C(=O)c1ccc(O)c([N+](=O)[O-])c1 | Active |
| COc1cc(O)c(Cl)cc1/C=C/C(=O)c1ccc(O)cc1 | Active |

Test system: RPTEC
Assay: Cytotoxicity against human RPTEC cells assessed as cell growth inhibition incubated for 48 hrs by CCK-8 assay
Assay type: toxicity, cell-based
Conditions: not given

| Compound | Activity |
| --- | --- |
| COc1cc(O)c(Cl)cc1/C=C/C(=O)c1ccc(O)c([N+](=O)[O-])c1 | Non-Toxic |
| COc1cc(O)c(Cl)cc1/C=C/C(=O)c1ccc(O)cc1 | Non-Toxic |

Biological target: T2, Dipeptidyl peptidase 4
Assay: Mixed type inhibition of DPP4 (unknown origin) using varying concentrations of GP-BAN as substrate assessed as inhibition constant
Conditions: not given
Target sequence in this assay (P27487 whole entry): as the sequence (P27487 whole entry, looked up) above

| Compound | Ki [µM] |
| --- | --- |
| COc1ccc(C(=O)/C=C/c2cc(Cl)c(O)cc2OC)cc1O | 23.1 |
| COc1cc(O)c(Cl)cc1/C=C/C(=O)c1ccc(Br)cc1 | 3.18 |
| O=c1c(O)c(-c2ccc(O)cc2)oc2cc(O)cc(O)c12 [KAEMPFEROL] | 14.4 |
| COc1cc(O)c(Cl)cc1/C=C/C(=O)c1ccc(O)c([N+](=O)[O-])c1 | 0.96 |
| COc1cc(O)c(Cl)cc1/C=C/C(=O)c1cccc(O)c1 | 17.4 |
| COc1cc(O)c(Cl)cc1/C=C/C(=O)c1ccc(O)cc1 | 6.57 |
| COc1cc(O)c(Cl)cc1/C=C/C(=O)c1ccc(O)c(O)c1 | 11.1 |

Biological target: Dipeptidyl peptidase 9 (Homo sapiens, UniProt Q86TI2)
Assay: Inhibition of recombinant human DPP9 using Z-GP-AMC as substrate preincubated for 5 mins followed by substrate addition and measured after 20 mins by microplate reader analysis
Conditions: not given

Sequence of Dipeptidyl peptidase 9 (Q86TI2 whole entry): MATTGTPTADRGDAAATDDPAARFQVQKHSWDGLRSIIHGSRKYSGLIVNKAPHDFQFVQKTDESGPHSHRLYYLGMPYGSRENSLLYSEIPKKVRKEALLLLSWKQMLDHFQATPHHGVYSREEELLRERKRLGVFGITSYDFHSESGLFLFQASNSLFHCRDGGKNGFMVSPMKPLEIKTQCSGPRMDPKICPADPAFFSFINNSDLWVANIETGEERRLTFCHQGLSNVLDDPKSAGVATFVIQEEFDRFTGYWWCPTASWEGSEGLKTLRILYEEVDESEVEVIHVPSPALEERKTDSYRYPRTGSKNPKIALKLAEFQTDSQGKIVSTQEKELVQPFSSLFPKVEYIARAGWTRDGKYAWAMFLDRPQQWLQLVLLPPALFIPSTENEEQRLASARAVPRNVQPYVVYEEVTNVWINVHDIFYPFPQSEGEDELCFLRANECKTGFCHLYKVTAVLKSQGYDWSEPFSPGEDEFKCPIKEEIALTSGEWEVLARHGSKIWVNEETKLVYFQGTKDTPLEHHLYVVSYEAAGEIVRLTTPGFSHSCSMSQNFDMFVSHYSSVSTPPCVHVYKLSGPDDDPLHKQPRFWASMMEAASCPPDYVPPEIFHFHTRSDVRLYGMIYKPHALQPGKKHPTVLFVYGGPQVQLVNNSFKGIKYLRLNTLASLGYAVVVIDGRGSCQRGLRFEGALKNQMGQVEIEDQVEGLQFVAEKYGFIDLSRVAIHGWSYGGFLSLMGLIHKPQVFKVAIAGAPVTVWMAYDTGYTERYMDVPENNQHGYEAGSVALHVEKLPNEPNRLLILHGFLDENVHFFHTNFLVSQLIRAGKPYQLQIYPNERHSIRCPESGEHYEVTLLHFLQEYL

| Compound | IC50 [µM] |
| --- | --- |
| COc1cc(O)c(Cl)cc1/C=C/C(=O)c1ccc(O)c([N+](=O)[O-])c1 | 86.3 |

Test system: not listed separately
Assay: Stability of the compound in artificial intestinal fluid at 10 uM incubated for 90 mins by LC-UV analysis
Assay type: ADME
Conditions: simulated gi fluid, 1.5 h

| Compound | Stability |
| --- | --- |
| COc1cc(O)c(Cl)cc1/C=C/C(=O)c1ccc(O)c([N+](=O)[O-])c1 | Stable |

Organism: Homo sapiens
Assay: Selectivity index, ratio of IC50 for inhibition of recombinant human DPP9 to IC50 for inhibition of recombinant human DPP4
Conditions: not given

| Compound | Ratio IC50 |
| --- | --- |
| COc1cc(O)c(Cl)cc1/C=C/C(=O)c1ccc(O)c([N+](=O)[O-])c1 | > 12.7 |

Test system: RAW264.7
Assay: Anti-inflammatory activity in mouse RAW264.7 cells assessed as downregulation of LPS-stimulated TNF-alpha mRNA expression at 20 to 100 uM preincubated for 4 hrs followed by LPS-stimulation for 24 hrs by qPCR analysis
Assay type: functional, cell-based
Conditions: dose 20-100 µM, time 28.0 hrs

| Compound | Activity |
| --- | --- |
| C[C@@H]1C[C@H]2[C@@H]3CCC4=CC(=O)C=C[C@]4(C)[C@@]3(F)[C@@H](O)C[C@]2(C)[C@@]1(O)C(=O)CO | Active |
| N[C@@H](CC(=O)N1CCn2c(nnc2C(F)(F)F)C1)Cc1cc(F)c(F)cc1F | Active |
| COc1cc(O)c(Cl)cc1/C=C/C(=O)c1ccc(O)c([N+](=O)[O-])c1 | Active |
| COc1cc(O)c(Cl)cc1/C=C/C(=O)c1ccc(O)cc1 | Active |

Biological target: T3, Prolyl endopeptidase FAP (Homo sapiens, UniProt Q12884)
T3 sequence (Q12884 whole entry): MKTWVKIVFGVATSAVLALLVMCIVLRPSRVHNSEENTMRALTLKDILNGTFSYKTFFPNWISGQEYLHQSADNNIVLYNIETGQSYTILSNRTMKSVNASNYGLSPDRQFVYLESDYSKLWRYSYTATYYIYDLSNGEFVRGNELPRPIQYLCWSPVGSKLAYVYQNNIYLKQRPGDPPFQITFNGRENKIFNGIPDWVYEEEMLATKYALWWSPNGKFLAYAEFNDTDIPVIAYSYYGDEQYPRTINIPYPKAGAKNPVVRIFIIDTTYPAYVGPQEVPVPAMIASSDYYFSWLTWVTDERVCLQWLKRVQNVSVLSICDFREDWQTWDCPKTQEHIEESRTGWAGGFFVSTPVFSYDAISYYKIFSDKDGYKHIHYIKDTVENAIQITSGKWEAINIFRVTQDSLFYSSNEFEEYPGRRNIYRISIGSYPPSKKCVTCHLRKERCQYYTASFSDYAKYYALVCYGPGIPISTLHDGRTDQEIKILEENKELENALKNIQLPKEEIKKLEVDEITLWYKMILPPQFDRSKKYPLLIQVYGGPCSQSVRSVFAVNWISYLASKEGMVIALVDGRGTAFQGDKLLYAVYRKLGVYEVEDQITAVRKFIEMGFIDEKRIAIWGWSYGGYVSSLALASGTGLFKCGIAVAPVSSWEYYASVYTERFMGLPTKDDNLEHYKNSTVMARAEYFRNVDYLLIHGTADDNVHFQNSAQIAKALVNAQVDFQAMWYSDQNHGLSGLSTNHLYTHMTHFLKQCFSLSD
Assay: Inhibition of recombinant human FAP using Z-GP-AMC as substrate preincubated for 5 mins followed by substrate addition and measured after 20 mins by microplate reader analysis
Conditions: not given

| Compound | IC50 [µM] |
| --- | --- |
| COc1cc(O)c(Cl)cc1/C=C/C(=O)c1ccc(O)c([N+](=O)[O-])c1 | > 100 |

Test system: RAW264.7
Assay: Anti-inflammatory activity in mouse RAW264.7 cells assessed as downregulation of LPS-stimulated IL-6 mRNA expression at 20 to 100 uM preincubated for 4 hrs followed by LPS-stimulation for 24 hrs by qPCR analysis
Assay type: functional, cell-based
Conditions: dose 20-100 µM, time 28.0 hrs

| Compound | Activity |
| --- | --- |
| C[C@@H]1C[C@H]2[C@@H]3CCC4=CC(=O)C=C[C@]4(C)[C@@]3(F)[C@@H](O)C[C@]2(C)[C@@]1(O)C(=O)CO | Active |
| N[C@@H](CC(=O)N1CCn2c(nnc2C(F)(F)F)C1)Cc1cc(F)c(F)cc1F | Active |
| COc1cc(O)c(Cl)cc1/C=C/C(=O)c1ccc(O)c([N+](=O)[O-])c1 | Active |
| COc1cc(O)c(Cl)cc1/C=C/C(=O)c1ccc(O)cc1 | Active |

Test system: not listed separately
Assay: Metabolic stability in human liver microsomes assessed as […] drug metabolism by measuring half life at 10 uM preincubated for 3 mins followed by NADPH addition measured for 90 mins by LC-UV analysis
Assay type: ADME, Microsome
Conditions: time 93 min

| Compound | half-life at 10 µM [min] |
| --- | --- |
| COc1cc(O)c(Cl)cc1/C=C/C(=O)c1ccc(O)c([N+](=O)[O-])c1 | 197 |

Test system: not listed separately
Assay: Stability of the compound in artificial gastric fluid at 10 uM incubated for 90 mins by LC-UV analysis
Assay type: ADME
Conditions: simulated gi fluid, 1.5 h

| Compound | Stability |
| --- | --- |
| COc1cc(O)c(Cl)cc1/C=C/C(=O)c1ccc(O)c([N+](=O)[O-])c1 | Stable |

Test system: not listed separately
Assay: Metabolic stability in human liver microsomes assessed as UDPGA-dependent drug metabolism by measuring half life at 10 uM preincubated for 3 mins followed by UDPGA addition measured for 90 mins by LC-UV analysis
Assay type: ADME, Microsome
Conditions: time 93 min

| Compound | half-life at 10 µM [min] |
| --- | --- |
| O=c1ccc2ccc(O)cc2o1 [UMBELLIFERONE] | 17.1 |
| COc1cc(O)c(Cl)cc1/C=C/C(=O)c1ccc(O)c([N+](=O)[O-])c1 | 25.4 |
| COc1cc(O)c(Cl)cc1/C=C/C(=O)c1ccc(O)cc1 | 7.1 |

Biological target: T2, Dipeptidyl peptidase 4
Assay: Inhibition of DPP4 in human HepG2 cells using GP-BAN as substrate assessed reduction of reduction in substrate hydrolysis at 20 uM incubated for 30 mins by Hoechst 33342 staining based assay
Assay type: cell-based
Conditions: not given
Target sequence in this assay (P27487 whole entry, looked up): as the sequence (P27487 whole entry, looked up) above

| Compound | inhibition |
| --- | --- |
| COc1cc(O)c(Cl)cc1/C=C/C(=O)c1ccc(O)c([N+](=O)[O-])c1 | Active |
| COc1cc(O)c(Cl)cc1/C=C/C(=O)c1ccc(O)cc1 | Active |

Biological target: T2, Dipeptidyl peptidase 4
Assay: Inhibition of DPP4 in human plasma using GP-BAN as fluorescent substrate preincubated for 5 mins followed by substrate addition and measured for 20 mins by microplate reader analysis
Assay type: cell-free
Conditions: not given
Target sequence in this assay (P27487 whole entry): as the sequence (P27487 whole entry, looked up) above

| Compound | IC50 [µM] |
| --- | --- |
| COc1ccc(C(=O)/C=C/c2cc(Cl)c(O)cc2OC)cc1O | 9.09 |
| CCCOc1ccc(C(=O)/C=C/c2cc(Cl)c(O)cc2OC)cc1 | 11.4 |
| COc1ccc(C(=O)/C=C/c2cc(Cl)c(OC)cc2OC)cc1 | > 100 |
| CCOc1ccc(C(=O)/C=C/c2cc(Br)c(O)cc2OC)cc1 | 35 |
| COc1cc(O)c(Cl)cc1/C=C/C(=O)c1ccc(Br)cc1 | 9.87 |
| O=c1c(O)c(-c2ccc(O)cc2)oc2cc(O)cc(O)c12 [KAEMPFEROL] | 6.67 |
| COc1cc(O)c(Cl)cc1/C=C/C(=O)c1ccc(O)c([N+](=O)[O-])c1 | 4.27 |
| COc1cc(O)c(Cl)cc1/C=C/C(=O)c1cccc(O)c1 | 6.43 |
| COc1cc(O)c(Cl)cc1/C=C/C(=O)c1ccc(O)cc1 | 7.16 |
| COc1cc(O)c(Cl)cc1/C=C/C(=O)c1ccc(O)c(O)c1 | 8.86 |

Biological target: Prothrombin (Homo sapiens, UniProt P00734)
Assay: Inhibition of recombinant thrombin in human plasma using […] as substrate preincubated for 3 mins followed by substrate addition and measured for 30 mins by microplate reader analysis
Assay type: cell-free
Conditions: not given

| Compound | IC50 [µM] |
| --- | --- |
| COc1cc(O)c(Cl)cc1/C=C/C(=O)c1ccc(O)c([N+](=O)[O-])c1 | > 100 |

Biological target: T2, Dipeptidyl peptidase 4
Assay: Inhibition of recombinant human DPP4 using GP-BAN as substrate preincubated for 5 mins followed by substrate addition and measured after 20 mins by microplate reader analysis
Conditions: not given
Target sequence in this assay (P27487 whole entry): as the sequence (P27487 whole entry, looked up) above

| Compound | IC50 [µM] |
| --- | --- |
| COc1cc(O)c(Cl)cc1/C=C/C(=O)c1ccc(O)c([N+](=O)[O-])c1 | 4.87 |

Test system: RAW264.7
Assay: Cytotoxicity against mouse RAW264.7 cells assessed as cell growth inhibition incubated for 48 hrs by CCK-8 assay
Assay type: toxicity, cell-based
Conditions: raw264.7, 48 h

| Compound | Activity |
| --- | --- |
| COc1cc(O)c(Cl)cc1/C=C/C(=O)c1ccc(O)c([N+](=O)[O-])c1 | Non-Toxic |
| COc1cc(O)c(Cl)cc1/C=C/C(=O)c1ccc(O)cc1 | Non-Toxic |

Test system: RAW264.7
Assay: Anti-inflammatory activity in mouse RAW264.7 cells assessed as downregulation of LPS-stimulated IL-1beta mRNA expression at 20 to 100 uM preincubated for 4 hrs followed by LPS-stimulation for 24 hrs by qPCR analysis
Assay type: functional, cell-based
Conditions: dose 20-100 µM, time 28.0 hrs

| Compound | Activity |
| --- | --- |
| C[C@@H]1C[C@H]2[C@@H]3CCC4=CC(=O)C=C[C@]4(C)[C@@]3(F)[C@@H](O)C[C@]2(C)[C@@]1(O)C(=O)CO | Active |
| N[C@@H](CC(=O)N1CCn2c(nnc2C(F)(F)F)C1)Cc1cc(F)c(F)cc1F | Active |
| COc1cc(O)c(Cl)cc1/C=C/C(=O)c1ccc(O)c([N+](=O)[O-])c1 | Active |
| COc1cc(O)c(Cl)cc1/C=C/C(=O)c1ccc(O)cc1 | Active |
